Reference: PMC11864979, “First-in-class ultralong-target-residence-time p38α inhibitors as a mitosis-targeted therapy for colorectal cancer” (Nature Cancer, 2025)
Like-named read-outs stand apart in the source and are kept apart here.

Columns and labels:
Test in all cases: selectivity profiling in a panel of 340 wild-type kinases (Reaction Biology Europe)
Type in all cases: binding
340 wild-type kinases [1] = target: T1, 340 wild-type kinases (Homo sapiens, UniProt Q13233)
T1 construct: purchased Reaction Biology Europe
T1 sequence (Q13233 whole entry): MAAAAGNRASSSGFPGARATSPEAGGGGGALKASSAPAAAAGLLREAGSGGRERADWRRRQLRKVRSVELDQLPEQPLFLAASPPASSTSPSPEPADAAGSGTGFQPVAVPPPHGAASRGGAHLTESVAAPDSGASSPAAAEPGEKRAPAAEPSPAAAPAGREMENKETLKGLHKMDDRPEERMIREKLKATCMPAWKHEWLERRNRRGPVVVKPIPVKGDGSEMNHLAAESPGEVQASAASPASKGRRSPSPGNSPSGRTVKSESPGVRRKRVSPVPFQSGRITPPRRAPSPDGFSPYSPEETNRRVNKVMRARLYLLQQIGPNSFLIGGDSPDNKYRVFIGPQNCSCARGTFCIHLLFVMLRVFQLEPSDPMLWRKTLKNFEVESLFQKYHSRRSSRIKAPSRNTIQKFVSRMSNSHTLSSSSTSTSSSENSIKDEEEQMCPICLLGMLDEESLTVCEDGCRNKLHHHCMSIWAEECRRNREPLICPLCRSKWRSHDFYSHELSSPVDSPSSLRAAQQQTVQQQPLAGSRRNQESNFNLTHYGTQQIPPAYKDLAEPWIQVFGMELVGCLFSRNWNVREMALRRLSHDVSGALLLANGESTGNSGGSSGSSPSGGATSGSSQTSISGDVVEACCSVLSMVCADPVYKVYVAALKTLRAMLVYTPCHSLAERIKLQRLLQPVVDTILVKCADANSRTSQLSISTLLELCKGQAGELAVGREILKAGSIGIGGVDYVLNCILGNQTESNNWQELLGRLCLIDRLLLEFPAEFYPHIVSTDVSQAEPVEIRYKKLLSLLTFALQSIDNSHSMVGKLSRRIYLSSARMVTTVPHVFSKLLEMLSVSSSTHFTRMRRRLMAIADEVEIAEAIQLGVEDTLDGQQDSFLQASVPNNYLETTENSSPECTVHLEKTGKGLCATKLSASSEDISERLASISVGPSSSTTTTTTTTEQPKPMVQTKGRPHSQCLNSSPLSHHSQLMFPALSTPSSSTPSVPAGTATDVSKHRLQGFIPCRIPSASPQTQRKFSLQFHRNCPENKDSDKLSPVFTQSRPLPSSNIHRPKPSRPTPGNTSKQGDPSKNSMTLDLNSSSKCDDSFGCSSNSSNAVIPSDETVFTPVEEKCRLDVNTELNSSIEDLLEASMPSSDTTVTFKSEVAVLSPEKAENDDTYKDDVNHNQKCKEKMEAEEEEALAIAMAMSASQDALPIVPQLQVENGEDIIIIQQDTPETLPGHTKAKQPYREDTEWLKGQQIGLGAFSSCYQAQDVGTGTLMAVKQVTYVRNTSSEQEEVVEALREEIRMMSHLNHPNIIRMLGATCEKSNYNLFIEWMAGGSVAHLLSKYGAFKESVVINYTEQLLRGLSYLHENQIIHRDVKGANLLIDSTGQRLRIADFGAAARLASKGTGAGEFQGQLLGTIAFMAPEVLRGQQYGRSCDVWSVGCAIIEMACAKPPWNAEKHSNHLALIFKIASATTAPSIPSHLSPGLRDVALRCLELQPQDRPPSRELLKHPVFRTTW

340 wild-type kinases [2] = target: T2, 340 wild-type kinases (Homo sapiens, UniProt Q8TF76)
T2 construct: purchased Reaction Biology Europe
T2 sequence (Q8TF76 1-798): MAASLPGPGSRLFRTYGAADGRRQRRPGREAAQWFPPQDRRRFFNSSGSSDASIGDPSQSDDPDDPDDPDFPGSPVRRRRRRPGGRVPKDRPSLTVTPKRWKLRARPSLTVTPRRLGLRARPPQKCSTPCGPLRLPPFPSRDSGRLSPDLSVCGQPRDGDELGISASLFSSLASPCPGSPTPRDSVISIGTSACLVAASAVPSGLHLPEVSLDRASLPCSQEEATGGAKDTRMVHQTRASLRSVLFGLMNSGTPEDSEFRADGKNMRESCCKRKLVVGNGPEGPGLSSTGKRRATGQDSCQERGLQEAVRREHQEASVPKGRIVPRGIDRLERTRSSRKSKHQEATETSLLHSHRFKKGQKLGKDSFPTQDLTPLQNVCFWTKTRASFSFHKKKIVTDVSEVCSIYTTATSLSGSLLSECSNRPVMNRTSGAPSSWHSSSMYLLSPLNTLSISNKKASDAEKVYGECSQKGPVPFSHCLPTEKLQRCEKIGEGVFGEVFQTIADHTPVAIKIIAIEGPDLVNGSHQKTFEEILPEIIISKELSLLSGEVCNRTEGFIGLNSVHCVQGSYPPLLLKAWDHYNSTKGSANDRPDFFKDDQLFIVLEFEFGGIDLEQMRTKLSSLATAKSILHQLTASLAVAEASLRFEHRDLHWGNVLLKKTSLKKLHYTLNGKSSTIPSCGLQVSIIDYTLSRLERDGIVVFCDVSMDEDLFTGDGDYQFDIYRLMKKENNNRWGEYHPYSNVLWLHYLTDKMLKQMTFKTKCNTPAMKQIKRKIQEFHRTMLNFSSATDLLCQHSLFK

340 wild-type kinases [3] = target: T3, 340 wild-type kinases (Homo sapiens, UniProt P49674)
T3 construct: purchased Reaction Biology Europe
T3 sequence (P49674 whole entry): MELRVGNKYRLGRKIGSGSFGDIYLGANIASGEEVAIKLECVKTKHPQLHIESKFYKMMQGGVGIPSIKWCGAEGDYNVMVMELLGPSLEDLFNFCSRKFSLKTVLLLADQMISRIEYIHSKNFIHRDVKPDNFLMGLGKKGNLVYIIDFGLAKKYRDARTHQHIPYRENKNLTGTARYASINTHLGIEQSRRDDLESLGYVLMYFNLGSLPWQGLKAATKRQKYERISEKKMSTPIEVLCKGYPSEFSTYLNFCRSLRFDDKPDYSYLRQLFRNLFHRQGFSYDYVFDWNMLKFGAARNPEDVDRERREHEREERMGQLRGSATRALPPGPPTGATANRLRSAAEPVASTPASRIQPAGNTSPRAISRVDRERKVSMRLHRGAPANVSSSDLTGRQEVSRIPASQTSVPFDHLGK

340 wild-type kinases [4] = target: T4, 340 wild-type kinases (Homo sapiens, UniProt Q13188)
T4 construct: purchased Reaction Biology Europe
T4 sequence (Q13188 1-491): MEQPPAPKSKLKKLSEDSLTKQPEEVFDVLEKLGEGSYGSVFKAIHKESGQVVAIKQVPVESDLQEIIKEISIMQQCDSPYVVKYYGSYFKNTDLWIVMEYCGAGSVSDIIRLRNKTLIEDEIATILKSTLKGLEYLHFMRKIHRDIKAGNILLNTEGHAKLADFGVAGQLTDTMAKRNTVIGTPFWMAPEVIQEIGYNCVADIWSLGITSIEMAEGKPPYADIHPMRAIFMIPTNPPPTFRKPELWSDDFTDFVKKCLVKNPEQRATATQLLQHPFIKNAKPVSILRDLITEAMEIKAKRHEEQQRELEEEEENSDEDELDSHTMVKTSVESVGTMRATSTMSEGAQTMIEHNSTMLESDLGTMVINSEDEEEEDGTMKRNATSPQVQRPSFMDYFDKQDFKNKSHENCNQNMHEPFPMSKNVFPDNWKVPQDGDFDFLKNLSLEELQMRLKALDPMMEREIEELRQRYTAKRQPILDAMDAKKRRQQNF

340 wild-type kinases [5] = target: T5, 340 wild-type kinases (Homo sapiens, UniProt Q96GX5)
T5 construct: purchased Reaction Biology Europe
T5 sequence (Q96GX5 1-879): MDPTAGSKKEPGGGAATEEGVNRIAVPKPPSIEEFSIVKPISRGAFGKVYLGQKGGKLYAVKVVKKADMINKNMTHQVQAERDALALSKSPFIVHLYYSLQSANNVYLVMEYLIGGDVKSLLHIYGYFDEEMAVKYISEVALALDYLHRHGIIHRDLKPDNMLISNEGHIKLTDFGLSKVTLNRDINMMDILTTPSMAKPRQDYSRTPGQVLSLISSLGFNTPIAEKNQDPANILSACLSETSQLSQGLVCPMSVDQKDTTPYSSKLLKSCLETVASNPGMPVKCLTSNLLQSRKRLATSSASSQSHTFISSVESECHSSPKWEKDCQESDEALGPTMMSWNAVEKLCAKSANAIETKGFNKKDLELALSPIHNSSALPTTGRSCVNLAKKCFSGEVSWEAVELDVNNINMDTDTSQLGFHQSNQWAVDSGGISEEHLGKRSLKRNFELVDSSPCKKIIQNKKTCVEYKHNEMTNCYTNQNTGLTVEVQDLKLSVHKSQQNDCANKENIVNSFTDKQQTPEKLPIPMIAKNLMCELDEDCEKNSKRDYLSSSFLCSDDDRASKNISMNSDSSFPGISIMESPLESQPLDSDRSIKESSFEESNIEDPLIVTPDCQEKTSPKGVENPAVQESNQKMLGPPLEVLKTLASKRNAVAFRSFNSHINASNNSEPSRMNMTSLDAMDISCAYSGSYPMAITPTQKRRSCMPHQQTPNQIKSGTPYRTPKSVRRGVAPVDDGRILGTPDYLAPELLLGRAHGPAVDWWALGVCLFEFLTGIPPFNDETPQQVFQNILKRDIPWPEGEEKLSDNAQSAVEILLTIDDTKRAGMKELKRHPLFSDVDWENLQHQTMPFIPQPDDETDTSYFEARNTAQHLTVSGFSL

340 wild-type kinases [6] = target: T6, 340 wild-type kinases (Homo sapiens, UniProt Q9UIK4)
T6 construct: purchased Reaction Biology Europe
T6 sequence (Q9UIK4 whole entry): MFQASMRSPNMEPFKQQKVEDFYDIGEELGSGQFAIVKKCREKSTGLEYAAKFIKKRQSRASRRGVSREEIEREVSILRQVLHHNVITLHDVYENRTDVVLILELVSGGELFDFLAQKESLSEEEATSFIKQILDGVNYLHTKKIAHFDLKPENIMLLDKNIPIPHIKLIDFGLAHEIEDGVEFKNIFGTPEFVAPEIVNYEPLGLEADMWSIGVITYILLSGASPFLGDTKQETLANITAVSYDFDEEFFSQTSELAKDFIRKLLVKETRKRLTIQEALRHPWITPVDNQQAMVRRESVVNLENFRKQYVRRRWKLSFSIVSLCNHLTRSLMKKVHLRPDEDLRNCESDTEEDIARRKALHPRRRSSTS

**Q.** Which remaining activity at 0.2 µM (340 wild-type kinases [1]; 0.2 µM 2015, read-out: MAP3K1 residual activity) does the source give for `CNC(=O)c1ccc2c(c1)C(=O)c1ccc(Nc3ccc(F)c(NC(=O)C4CC4)c3)cc1CC2` [Compound 2015] here?
**A.** Its remaining activity at 0.2 µM is 104%.

**Q.** What about the remaining activity at 1 µM (340 wild-type kinases [1]; 1 µM 2015, read-out: MAP3K1 residual activity) of the same compound?
**A.** Its remaining activity at 1 µM is 102%.

**Q.** And the remaining activity at 0.2 µM (340 wild-type kinases [1]; MAP3K1, 0.2 µM, read-out: residual activity)?
**A.** Its remaining activity at 0.2 µM is 104%.

**Q.** What about the remaining activity at 1 µM (340 wild-type kinases [1]; MAP3K1, 1 µM, read-out: residual activity) of the same compound?
**A.** Its remaining activity at 1 µM is 102%.

**Q.** And the remaining activity at 0.2 µM (340 wild-type kinases [2]; 0.2 µM 2015, read-out: GSG2 residual activity)?
**A.** Its remaining activity at 0.2 µM is 105%.

**Q.** What about the remaining activity at 1 µM (340 wild-type kinases [2]; 1 µM 2015, read-out: GSG2 residual activity) of the same compound?
**A.** Its remaining activity at 1 µM is 82.5%.

**Q.** And the remaining activity at 0.2 µM (340 wild-type kinases [2]; GSG2, 0.2 µM, read-out: residual activity)?
**A.** Its remaining activity at 0.2 µM is 105%.

**Q.** And the remaining activity at 1 µM (340 wild-type kinases [2]; GSG2, 1 µM, read-out: residual activity)?
**A.** Its remaining activity at 1 µM is 82.5%.

**Q.** What about the remaining activity at 0.2 µM (340 wild-type kinases [3]; 0.2 µM 2015, read-out: CK1epsilon residual activity) of the same compound?
**A.** The remaining activity at 0.2 µM was 114%.

**Q.** What about the remaining activity at 1 µM (340 wild-type kinases [3]; 1 µM 2015, read-out: CK1epsilon residual activity) of the same compound?
**A.** Its remaining activity at 1 µM is 111%.

**Q.** And the remaining activity at 0.2 µM (340 wild-type kinases [3]; CK1epsilon, 0.2 µM, read-out: residual activity)?
**A.** Its remaining activity at 0.2 µM is 114%.

**Q.** What about the remaining activity at 1 µM (340 wild-type kinases [3]; CK1epsilon, 1 µM, read-out: residual activity) of the same compound?
**A.** Its remaining activity at 1 µM is 111%.

**Q.** And the remaining activity at 0.2 µM (340 wild-type kinases [4]; 0.2 µM 2015, read-out: MST2 residual activity)?
**A.** Its remaining activity at 0.2 µM is 115%.

**Q.** And the remaining activity at 1 µM (340 wild-type kinases [4]; 1 µM 2015, read-out: MST2 residual activity)?
**A.** Its remaining activity at 1 µM is 106%.

**Q.** And the remaining activity at 0.2 µM (340 wild-type kinases [4]; MST2, 0.2 µM, read-out: residual activity)?
**A.** The remaining activity at 0.2 µM was 115%.

**Q.** What about the remaining activity at 1 µM (340 wild-type kinases [4]; MST2, 1 µM, read-out: residual activity) of the same compound?
**A.** Its remaining activity at 1 µM is 106%.

**Q.** And the remaining activity at 0.2 µM (340 wild-type kinases [5]; 0.2 µM 2015, read-out: MASTL residual activity)?
**A.** Its remaining activity at 0.2 µM is 101%.

**Q.** What about the remaining activity at 1 µM (340 wild-type kinases [5]; 1 µM 2015, read-out: MASTL residual activity) of the same compound?
**A.** The remaining activity at 1 µM was 93.3%.

**Q.** And the remaining activity at 0.2 µM (340 wild-type kinases [5]; MASTL, 0.2 µM, read-out: residual activity)?
**A.** Its remaining activity at 0.2 µM is 101%.

**Q.** And the remaining activity at 1 µM (340 wild-type kinases [5]; MASTL, 1 µM, read-out: residual activity)?
**A.** The remaining activity at 1 µM was 93.3%.

**Q.** What about the remaining activity at 0.2 µM (340 wild-type kinases [6]; 0.2 µM 2015, read-out: DAPK2 residual activity) of the same compound?
**A.** Its remaining activity at 0.2 µM is 116%.

**Q.** And the remaining activity at 1 µM (340 wild-type kinases [6]; 1 µM 2015, read-out: DAPK2 residual activity)?
**A.** The remaining activity at 1 µM was 100%.

**Q.** And the remaining activity at 0.2 µM (340 wild-type kinases [6]; DAPK2, 0.2 µM, read-out: residual activity)?
**A.** The remaining activity at 0.2 µM was 116%.

**Q.** And the remaining activity at 1 µM (340 wild-type kinases [6]; DAPK2, 1 µM, read-out: residual activity)?
**A.** The remaining activity at 1 µM was 100%.
